# According to US7534436B2, “Peptide fragments of the harp factor inhibiting angiogenesis” (Centre National de la Recherche Scientifique (C.N.R.S.), priority 2002, dated 2009):
# Where a SMILES comes first, the peptide text is derived from it.
# Legend:
# [1] = test system: endothelial cells which have invaded the Matrigel; test: In vivo Matrigel angiogenesis model, substance used alone; set-up: species or system Swiss mice; settings: day 7; for effect on angiogenesis when peptide used alone: peptide 1 μM alone in Matrigel; for increase in the number of endothelial cells by comparison with Matrigel used by itself: HARP 5 nM or FGF-2 10 nM in Matrigel
# Procedure: (§1) FIG. 6 represents the inhibition by the HARP peptides 13-39 and 65-97 of the angiogenesis induced by HARP in an in vivo model. Three hundred microlitres of Matrigel® incubated with 5 nM of HARP in the presence or absence of the HARP peptides 13-39 and 65-97 used at a concentration of 1 μM are injected subcutaneously into a mouse. The control of the experiment is achieved using FGF-2. Seven days later the mice are sacrificed and the Matrigel® is removed. Sections having a thickness of 8 μM are produced. The sections are then stained with Trichrome from Gomori. The number of cells which have invaded the Matrigel® is quantified by image analysis with NIH software. The results represent the mean value of an analysis of 7 sections per mouse (n=4 mice/group). The bars represent the standard margins for error (**, p<0.01).
# This experiment was carried out using an in vivo angiogenesis model in mice. This experimental model consists in injecting Matrigel® containing a substance to be analysed for its angiogenesis stimulating or inhibiting properties. Four Swiss mice (Janvier, Genest St Isle, France) per group are injected with 300 μl of Matrigel® previously incubated with either 5 nM of HARP, 1 μM of HARP peptide 13-39 or 65-97, or with a mixture of HARP (5 nM) and HARP peptides 13-39 or 65-97 (1 μM). The control of the specificity of the inhibition is carried out using another angiogenic factor, FGF-2, tested either by itself at a concentration of 10 nM or supplemented by the HARP peptides 13-39 or 65-97 used at a concentration of 1 μM.
# The mice are sacrificed seven days after the injection of the Matrigel®. This latter is removed and frozen in liquid nitrogen. Sections 8 μM thick are then effected with a cryostat. The sections are then stained with Trichrome from Gomori. The number of endothelial cells which have invaded the Matrigel® is quantified by image analysis using NIH imaging software.
# [2] = test system: NIH 3T3 cells stimulated by HARP; settings: 24 h, 10 μM
# Procedure: After 24 hours' incubation the cellular proliferation is estimated by measurement of the tritiated thymidine incorporated by the cells.
# Fibroblast cells of type NIH 3T3 are cultured at a density of 3×10^4 cells per cm^2 in DMEM culture medium supplemented with 10% of foetal calf serum. […] After this period of incubation, 0.5 μCi of [methyl-^3H]thymidine is added and 6 hours afterwards the cells are fixed by a 10% solution of trichloroacetic acid. The radioactivity incorporated by the cells is then counted by liquid scintillation after having effected a cell lysis with a solution of sodium hydroxide at a concentration of 0.1 N.
# [3] = test system: angiogenesis induced by HARP; test: In vivo Matrigel angiogenesis model, angiogenesis induced by HARP; set-up: species or system Swiss mice; settings: peptide 1 μM with HARP 5 nM in Matrigel, subcutaneous; day 7
# Procedure: as §1
# (§2) This experiment was carried out using an in vivo angiogenesis model in mice. This experimental model consists in injecting Matrigel® containing a substance to be analysed for its angiogenesis stimulating or inhibiting properties. […]
# (§3) The mice are sacrificed seven days after the injection of the Matrigel®. […] The number of endothelial cells which have invaded the Matrigel® is quantified by image analysis using NIH imaging software.
# [4] = test system: angiogenesis induced by FGF-2; test: In vivo Matrigel angiogenesis model, angiogenesis induced by FGF-2 (specificity control); set-up: species or system Swiss mice; settings: peptide 1 μM with FGF-2 10 nM in Matrigel; day 7
# Procedure: as §1, §2, §3
# [5] = test system: PC3 cells (line resulting from prostate cancer); test: Tumour growth after injection of PC3 cells into nude mice; format: in vivo; settings: 5 mg/kg daily injection in the region of the tumour
# Procedure: Two million PC3 cells are injected into groups of 5 nude mice treated or not by daily injection in the region of the tumour with PBS (control) or with the HARP peptide 111-136 at a concentration of 5 mg/kg. The tumour growth for each group of animals is evaluated by measurement of the size of the tumour on day 9, 13, 16, 20, 23 and 27.
# The capacity of the peptide P111-136 (SEQ ID NO: 4) to inhibit tumour angiogenesis has been tested by inducing tumour growth by injection of PC3 cells into nude mice in the presence or absence of peptide P111-136. 2×10^6 PC3 cells are injected into groups of 5 nude mice (nude/nude, Laboratoire IFFA CREDO) treated or not by injection in the region of the tumour of 100 μl per day of a solution of PBS (control group) or by a solution of peptide P111-136 diluted in PBS at a concentration of 5 mg/kg. On day 9, 13, 16, 20, 23 and 27 the size of the tumour is measured with the aid of a calliper gauge. The results are presented in FIG. 3 and indicate that the HARP peptide 111-136 used at a dose of 5 mg per kg induces an inhibition of the growth of the tumours.
# [6] = test system: endothelial cells in the tumour (PC3); test: Tumour angiogenesis in PC3 tumours of nude mice (isolectin B4 staining of endothelial cells, image analysis); format: in vivo; settings: day 27; 5 mg/kg daily injection in the region of the tumour
# Procedure: Two million PC3 cells are injected into groups of mice treated or not by daily injection in the region of the tumour with PBS (control) or with the peptide 111-136 at a concentration of 5 mg/kg. The mice are sacrificed on day 27. The quantification of the angiogenesis is effected on a section after immunohistological analysis using isolectine Bandeiraea Simplicifolia as a specific marker of the endothelial cells and image analysis. The values presented in the histogram represent the mean value obtained by analysing three independent sections resulting from each of six tumours obtained in each condition.
# On day 27, the tumours are removed and freezing sections of 5 μm are produced. […] This lectin is then detected by immunomarking with the aid of a sandwich of specific antibodies marked with alkaline phosphatase. After incubation with a substrate of alkaline phosphatase (Vector Red substrate), the endothelial cells are stained red. The quantification of the number of endothelial cells in the tumour is carried out by image analysis (NIH image) by analysing the 6 tumours on 3 independent sections of one and the same tumour.
# [7] = Bernard-Pierrot et al 2002; cited from earlier work
# [8] = target: anaplastic lymphoma kinase (ALK) (Homo sapiens, UniProt Q9UM73); settings: high affinity tyrosine kinase receptor; Stoica et al, 2001; cited from earlier work
# anaplastic lymphoma kinase (ALK), sequence (Q9UM73 19-1620, species assumed): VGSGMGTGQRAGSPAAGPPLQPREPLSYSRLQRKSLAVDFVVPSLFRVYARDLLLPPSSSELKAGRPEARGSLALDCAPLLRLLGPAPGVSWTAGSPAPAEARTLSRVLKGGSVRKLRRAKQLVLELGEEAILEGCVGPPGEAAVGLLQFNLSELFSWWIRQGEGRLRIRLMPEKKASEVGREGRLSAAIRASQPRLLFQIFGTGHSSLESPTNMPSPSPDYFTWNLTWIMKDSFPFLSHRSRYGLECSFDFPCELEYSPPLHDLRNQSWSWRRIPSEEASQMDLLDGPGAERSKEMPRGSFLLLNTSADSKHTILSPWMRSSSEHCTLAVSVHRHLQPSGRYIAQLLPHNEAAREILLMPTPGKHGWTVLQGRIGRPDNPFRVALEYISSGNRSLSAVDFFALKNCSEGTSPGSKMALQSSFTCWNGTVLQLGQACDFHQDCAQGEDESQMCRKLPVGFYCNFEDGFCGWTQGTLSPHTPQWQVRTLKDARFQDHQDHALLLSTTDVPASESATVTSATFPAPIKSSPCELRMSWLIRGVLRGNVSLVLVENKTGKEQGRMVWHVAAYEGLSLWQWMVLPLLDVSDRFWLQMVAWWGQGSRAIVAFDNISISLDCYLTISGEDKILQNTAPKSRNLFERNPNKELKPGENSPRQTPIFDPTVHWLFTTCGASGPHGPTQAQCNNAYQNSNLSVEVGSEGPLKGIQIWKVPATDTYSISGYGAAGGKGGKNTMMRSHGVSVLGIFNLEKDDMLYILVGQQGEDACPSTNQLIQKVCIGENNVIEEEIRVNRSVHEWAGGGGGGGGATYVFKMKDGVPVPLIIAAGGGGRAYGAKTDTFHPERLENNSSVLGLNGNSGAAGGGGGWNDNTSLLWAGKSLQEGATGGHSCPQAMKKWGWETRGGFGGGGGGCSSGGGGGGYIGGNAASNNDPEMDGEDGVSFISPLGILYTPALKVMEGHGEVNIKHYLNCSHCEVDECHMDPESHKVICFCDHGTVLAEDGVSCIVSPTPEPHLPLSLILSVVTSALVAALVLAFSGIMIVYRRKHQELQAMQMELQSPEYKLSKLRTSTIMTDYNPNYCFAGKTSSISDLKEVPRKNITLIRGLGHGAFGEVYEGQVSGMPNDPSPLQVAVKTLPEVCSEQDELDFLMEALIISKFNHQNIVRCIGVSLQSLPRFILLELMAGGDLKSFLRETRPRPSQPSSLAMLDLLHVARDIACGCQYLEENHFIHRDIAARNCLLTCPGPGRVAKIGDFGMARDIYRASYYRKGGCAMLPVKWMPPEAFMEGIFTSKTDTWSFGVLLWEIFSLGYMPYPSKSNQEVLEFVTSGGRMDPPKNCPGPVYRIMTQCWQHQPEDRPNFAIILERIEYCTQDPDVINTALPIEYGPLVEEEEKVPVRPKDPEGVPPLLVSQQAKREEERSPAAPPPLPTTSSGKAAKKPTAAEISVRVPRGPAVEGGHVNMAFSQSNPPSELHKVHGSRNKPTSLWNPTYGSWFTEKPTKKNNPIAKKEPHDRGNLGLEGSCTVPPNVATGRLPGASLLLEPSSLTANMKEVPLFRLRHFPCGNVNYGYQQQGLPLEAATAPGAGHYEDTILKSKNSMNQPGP
Molecule,effect on angiogenesis when peptide used alone [1],effect on angiogenesis induced by HARP [3],effect on angiogenesis induced by FGF-2 [4],increase in the number of endothelial cells by comparison with Matrigel used by itself [1],further results
CC(C)C[C@H](NC(=O)CNC(=O)[C@H](CS)NC(=O)[C@H](CC(=O)O)NC(=O)CNC(=O)[C@H](CO)NC(=O)[C@@H](NC(=O)[C@@H]1CCCN1C(=O)[C@@H](NC(=O)[C@H](CS)NC(=O)[C@@H](NC(=O)[C@H](CO)NC(=O)[C@H](Cc1c[nH]c2ccccc12)NC(=O)[C@H](CCC(N)=O)NC(=O)[C@H](Cc1c[nH]c2ccccc12)NC(=O)[C@H](CCC(=O)O)NC(=O)CNC(=O)[C@H](CS)NC(=O)[C@H](CC(=O)O)NC(=O)[C@@H](N)CO)C(C)C)C(C)C)[C@@H](C)O)C(=O)NCC(=O)N[C@H](C(=O)N[C@@H](CCCNC(=N)N)C(=O)N[C@@H](CCC(=O)O)C(=O)NCC(=O)N[C@H](C(=O)N[C@@H](CCCNC(=N)N)C(=O)N[C@H](C(=O)O)[C@@H](C)O)[C@@H](C)O)[C@@H](C)O [peptide 13-39] (H-SDCGEWQWSVCVPTSGDCGLGTREGTRT-OH; N-terminus and C-terminus assumed),No significant effect,totally inhibit,no effect,–,inhibition of the HARP activity (induction of cell proliferation) [2]: 60%
CC(C)C[C@H](NC(=O)[C@H](C)NC(=O)[C@H](CCCNC(=N)N)NC(=O)[C@H](CCCCN)NC(=O)[C@H](CC(C)C)NC(=O)[C@H](CO)NC(=O)CNC(=O)[C@@H](NC(=O)[C@H](CCCNC(=N)N)NC(=O)[C@@H](NC(=O)[C@H](CCCCN)NC(=O)[C@H](CC(C)C)NC(=O)[C@H](C)NC(=O)[C@@H](NC(=O)[C@H](CC(N)=O)NC(=O)[C@H](CC(C)C)NC(=O)[C@H](CC(=O)O)NC(=O)[C@H](CS)NC(=O)[C@H](CCC(=O)O)NC(=O)CNC(=O)[C@H](Cc1c[nH]c2ccccc12)NC(=O)[C@H](C)NC(=O)[C@H](CCC(N)=O)NC(=O)[C@H](Cc1ccccc1)NC(=O)[C@H](CCC(N)=O)NC(=O)[C@H](Cc1ccc(O)cc1)NC(=O)[C@H](CCCCN)NC(=O)[C@H](CS)NC(=O)[C@H](CCC(=O)O)NC(=O)[C@H](C)N)[C@@H](C)O)[C@@H](C)O)[C@@H](C)O)C(=O)N[C@@H](Cc1c[nH]cn1)C(=O)N[C@@H](CC(N)=O)C(=O)N[C@@H](C)C(=O)O [peptide 65-97] (H-AECKYQFQAWGECDLNTALKTRTGSLKRALHNA-OH; N-terminus and C-terminus assumed),No significant effect,totally inhibit,no effect,–,–
"FGF-2: another angiogenic factor, used as control of the specificity of the inhibition",–,–,–,5.8 times,–
"KLTKPKPQAESKKKKKEGKKQEKMLD (listed as Homo sapiens) [peptide 111-136, C-terminal peptide fragment of HARP, amino acids 111-136, acts on the ALK receptor]",–,–,–,–,"rate of tumour growth, times less than in untreated mice ([5]; PC3 in nude mice): 4 times; mean size of the tumours smaller than in untreated mice ([5]; day 27): 80%; reduction in the intra-tumoral vessels [6]: 55%; mitogenic / angiogenic activity [7]: neither mitogenic n or angiogenic"
"HARP: angiogenic heparin binding growth factor, mature protein of 136 or 139 amino acids (protein, UniProt P21246 33-168, looked up) Pleiotrophin: GKKEKPEKKVKKSDCGEWQWSVCVPTSGDCGLGTREGTRTGAECKQTMKTQRCKIPCNWKKQFGAECKYQFQAWGECDLNTALKTRTGSLKRALHNAECQKTVTISKPCGKLTKPKPQAESKKKKKEGKKQEKMLD",–,–,–,3 times,Kd [8]: 50 pM
